Source: patent US8895613B2 (priority 2013, dated 2014)

Target: neuraminidase of Oseltamivir resistant virus of A/Vladivostok/16/09 (H1N1) influenza (Influenza A virus, UniProt C3W5S3)

SMILES | more active than A2 by factor | more active than A4 by factor
CCC(CC)O[C@@H]1C=C(C(=O)O)C[C@H](NC(=N)N)[C@H]1NC(=O)CF [1.1, (3R,4R,5S)-5-guanidino-4-fluoroacetamido-3-(pentan-3-yloxy)cyclohex-1-enecarboxylic acid] | 207 | 250
CCC(CC)O[C@@H]1C=C(C(=O)O)C[C@H](NC(=N)N)[C@H]1NC(=O)C(F)F [1.4, (3R,4R,5S)-5-guanidino-4-difluoroacetamido-3-(pentan-3-yloxy)cyclohex-1-enecarboxylic acid] | 118 | 140
